Results taken from patent EP4806900A2, “RAS INHIBITORS” (Revolution Medicines, Inc., priority 2019, dated 2021).

System: NCI-H358 (K-Ras G12C)
Test: CellTiter-Glo cell viability assay, NCI-H358
Assay type: cell-based, human
Settings: Homo sapiens, NCI-H358, Table 5; read-out: H358 Cell Viability assay data (K-Ras G12C, IC50)
Summary of the method: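 Compounds dispensed directly onto plated NCI-H358 cells; plates equilibrated to room temperature on day 5 before luminescence read-out. Signal normalized to mean DMSO control (%) and fitted by four-parameter logistic.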

**Q.** How did the IC50 turn out when `C=CC(=O)N1CC[C@H](C(=O)N(C)[C@H](C(=O)N[C@H]2CC3=CCCN(C3)c3ccc4c(c3)c(c(-c3cccnc3[C@H](C)OC)n4CC)CC(C)(C)COC(=O)[C@@H]3CCCN(N3)C2=O)C(C)C)C1` (atropisomer, axis not shown) [Compound A486] was run?
**A.** The IC50 was 0.1 to 1 µM.

Same assay, conditions: Homo sapiens, NCI-H358, read-out: H358 Cell Viability assay data (K-Ras G12C, IC50, uM), Table 5

**Q.** Which IC50 does the source give for `C=CC(=O)N1CC[C@H](C(=O)N(C)[C@H](C(=O)N[C@H]2Cc3cc(O)cc(c3)-c3ccc4c(c3)c(c(-c3cc(C)cnc3[C@H](C)OC)n4CC)CC(C)(C)COC(=O)[C@@H]3CCCN(N3)C2=O)C(C)C)C1` [Compound A167] here?
**A.** The IC50 was less than 0.01 µM.

**Q.** Which IC50 does the source give for `C=CC(=O)N1CC[C@H](C(=O)N(C)[C@H](C(=O)N[C@H]2Cc3cc(O)cc(c3)-c3ccc4c(c3)c(c(-c3cccnc3)n4C3CC3)CC(C)(C)COC(=O)[C@@H]3CCCN(N3)C2=O)C(C)C)C1` [Compound A160] here?
**A.** The IC50 was 0.1 to 1 µM.

**Q.** `CCn1c(-c2cnccc2COC)c2c3cc(ccc31)-c1ccnc(c1)C[C@H](NC(=O)[C@H](C(C)C)N(C)C(=O)[C@H]1CCN(C(=O)C#CCN(C)C)C1)C(=O)N1CCC[C@H](N1)C(=O)OCC(C)(C)C2` [Compound A130] was tested. Which IC50 did it give?
**A.** Its IC50 is 0.01 to 0.1 µM.

**Q.** For `CCn1c(-c2cccnc2COC)c2c3cc(ccc31)-c1cc(O)cc(c1)C[C@H](NC(=O)[C@H](C(C)C)N(C)C(=O)[C@H]1CCN(C(=O)C#CCOC)C1)C(=O)N1CCC[C@H](N1)C(=O)OCC(C)(C)C2` [Compound A135], which IC50 is on record?
**A.** Its IC50 is less than 0.01 µM.

**Q.** Which IC50 does the source give for `C=CC(=O)N1CCN(C(=O)N(C)[C@H](C(=O)N[C@H]2Cc3nc(cs3)-c3ccc4c(c3)c(c(-c3cccnc3[C@H](C)OC)n4CC(F)(F)F)CC(C)(C)COC(=O)[C@@H]3CCCN(N3)C2=O)C(C)C)CC1` [Compound A464] here?
**A.** The IC50 was less than 0.01 µM.

**Q.** With `C=CC(=O)N1CC[C@H](C(=O)N(C)[C@H](C(=O)N[C@H]2Cc3cc(CF)cc(c3)-c3ccc4c(c3)c(c(-c3cccnc3[C@H](C)OC)n4CC(F)(F)F)CC(C)(C)COC(=O)[C@@H]3CCCN(N3)C2=O)C(C)C)C1` [Compound A659] as the compound, how does the IC50 read?
**A.** The IC50 was less than 0.01 µM.

Same assay, conditions: Table 5; read-out: H358 Cell Viability assay data (K-Ras G12C, IC50)

**Q.** For `C=CC(=O)N1CC[C@H](C(=O)N(C)[C@H](C(=O)N[C@H]2Cc3cc(O)cc(c3)-c3ccc4c(c3)c(c(-c3ccc5c(c3)CCN(C)C5)n4CC)CC(C)(C)COC(=O)[C@@H]3CCCN(N3)C2=O)C(C)C)C1` [Compound A40], which IC50 is on record?
**A.** The IC50 was 0.01 to 0.1 µM.

**Q.** How did the IC50 turn out when `C=CC(=O)N1CC[C@H](C(=O)N(C)[C@H](C(=O)N[C@H]2Cc3cc(O)cc(c3)-c3ccc4c(c3)c(c(-c3cn(C)cn3)n4CC)CC(C)(C)COC(=O)[C@@H]3CCCN(N3)C2=O)C(C)C)C1` [Compound A113] was run?
**A.** The IC50 was 0.1 to 1 µM.

**Q.** How did the IC50 turn out when `CCn1c(-c2ccccc2CN(C)C)c2c3cc(ccc31)-c1cc(O)cc(c1)C[C@H](NC(=O)[C@H](C(C)C)N(C)C(=O)c1nc(NC(=O)/C=C/CN(C)C)cs1)C(=O)N1CCC[C@H](N1)C(=O)OCC(C)(C)C2` [Compound A90] was run?
**A.** The IC50 was greater than 1 µM.

**Q.** `C=CC(=O)N1CC[C@H](C(=O)N(C)[C@H](C(=O)N[C@H]2Cc3cc(O)cc(c3)-c3ccc4c(c3)c(c(-c3nccnc3COC)n4CC)CC(C)(C)COC(=O)[C@@H]3CCCN(N3)C2=O)C(C)C)C1` [Compound A85] was tested. Which IC50 did it give?
**A.** The IC50 was 0.1 to 1 µM.

**Q.** With `C=CC(=O)N1CC[C@H](C(=O)N(C)[C@H](C(=O)N[C@H]2Cc3cc(O)cc(c3)-c3ccc4c(c3)c(c(-c3cccnc3COC)n4CC)CC(C)(C)COC(=O)[C@@H]3CCCN(N3)C2=O)C(C)C)C1` [Compound A16] as the compound, how does the IC50 read?
**A.** Its IC50 is 0.01 to 0.1 µM.

**Q.** How did the IC50 turn out when `CCn1c(-c2cccnc2[C@H](C)OC)c2c3cc(ccc31)-c1csc(n1)C[C@H](NC(=O)[C@H](C(C)C)N(C)C(=O)N1CCCOC13CN(C(=O)C#CC(C)(C)N(C)C)C3)C(=O)N1CCC[C@H](N1)C(=O)OCC(C)(C)C2` (atropisomer, axis not shown) [Compound A666] was run?
**A.** The IC50 was 0.01 to 0.1 µM.

**Q.** How did the IC50 turn out when `C=CC(=O)N1CC[C@H](C(=O)N(C)[C@H](C(=O)N[C@H]2Cc3cc(O)cc(c3)-c3cc(F)c4c(c3)c(c(-c3ccccc3CCOC)n4CC)CC(C)(C)COC(=O)[C@@H]3CCCN(N3)C2=O)C(C)C)C1` [Compound A53] was run?
**A.** The IC50 was 0.1 to 1 µM.

**Q.** With `C=CC(=O)N1CCCN(C(=O)N(C)[C@H](C(=O)N[C@H]2Cc3cc(O)cc(c3)-c3ccc4c(c3)c(c(-c3ccccc3CCOC)n4CC)CC(C)(C)COC(=O)[C@@H]3CCCN(N3)C2=O)C(C)C)CC1` [Compound A13] as the compound, how does the IC50 read?
**A.** The IC50 was 0.1 to 1 µM.

**Q.** How did the IC50 turn out when `C=CC(=O)N1CC[C@H](C(=O)N(C)[C@H](C(=O)N[C@H]2Cc3cc(O)cc(c3)-c3ccc4c(c3)c(c(-c3cccnc3)n4C(C)(C)C#N)CC(C)(C)COC(=O)[C@@H]3CCCN(N3)C2=O)C(C)C)C1` [Compound A74] was run?
**A.** Its IC50 is 0.01 to 0.1 µM.

**Q.** How did the IC50 turn out when “(2R)-2-(((1-(4-(dimethylamino)-4-methylpent-2-ynoyl)azetidin-3-yl)oxy)methyl)-N-((6^3S,4S)-1^1-ethyl-1^2-(2-((S)-1-methoxyethyl)pyridin-3-yl)-10,10-dimethyl-5,7-dioxo-6^1,6^2,6^3,6^4,6^5,6^6-hexahydro-1^1H-8-oxa-1(5,3)-indola-6(1,3)-pyridazina-2(1,3)-benzenacycloundecaphane-4-yl)-3-methylbutanamide [Compound A316]” was run?
**A.** Its IC50 is less than 0.01 µM.

**Q.** How did the IC50 turn out when `C=CC(=O)N1CC[C@H](C(=O)N(C)[C@H](C(=O)N[C@H]2Cc3cc(O)cc(c3)-c3ccc4c(c3)c(c(-c3cccnc3COC)n4CC)CC(C)(C)COC(=O)[C@@H]3CCCN(N3)C2=O)C2CCCC2)C1` [Compound A55] was run?
**A.** The IC50 was less than 0.01 µM.

**Q.** With `C=CC(=O)N1CC[C@@]2(CCN([C@H](C(=O)N[C@H]3Cc4cc(O)cc(c4)-c4ccc5c(c4)c(c(-c4ccccc4CCOC)n5CC)CC(C)(C)COC(=O)[C@@H]4CCCN(N4)C3=O)C(C)C)C2=O)C1` [Compound A68] as the compound, how does the IC50 read?
**A.** The IC50 was 0.1 to 1 µM.

**Q.** With `CCn1c(-c2cnccc2COC)c2c3cc(ccc31)-c1cc(O)cc(c1)C[C@H](NC(=O)[C@H](C(C)C)N(C)C(=O)[C@H]1CCN(C(=O)C#CCN(C)C)C1)C(=O)N1CCC[C@H](N1)C(=O)OCC(C)(C)C2` [Compound A88] as the compound, how does the IC50 read?
**A.** Its IC50 is less than 0.01 µM.

**Q.** For `C=CC(=O)N1C[C@H](C)[C@H](C(=O)N(C)[C@H](C(=O)N[C@H]2Cc3cc(O)cc(c3)-c3ccc4c(c3)c(c(-c3ccccc3CN(C)C)n4CC)CC(C)(C)COC(=O)[C@@H]3CCCN(N3)C2=O)C2CCCC2)C1` [Compound A43], which IC50 is on record?
**A.** The IC50 was 0.01 to 0.1 µM.

**Q.** With `C=CC(=O)N1CC[C@H](C(=O)N(C)[C@H](C(=O)N[C@H]2Cc3cc(O)cc(c3)-c3ccc4c(c3)c(c(-c3cccnc3)n4CC)CC(C)(C)COC(=O)[C@@H]3CCCN(N3)C2=O)C(C)C)C1` [Compound A45] as the compound, how does the IC50 read?
**A.** The IC50 was 0.01 to 0.1 µM.

**Q.** `C=CC(=O)N1CC[C@H](C(=O)N(C)[C@H](C(=O)N[C@H]2Cc3cc(N)cc(c3)-c3ccc4c(c3)c(c(-c3ccccc3COC)n4CC)CC(C)(C)COC(=O)[C@@H]3CCCN(N3)C2=O)C(C)C)C1` [Compound A42] was tested. Which IC50 did it give?
**A.** The IC50 was 0.1 to 1 µM.

**Q.** For `C=CC(=O)N1CC[C@H](C(=O)N(C)[C@H](C(=O)N[C@H]2Cc3cc(O)cc(c3)-c3ccc4c(c3)c(c(-c3ncccc3COC)n4CC)CC(C)(C)COC(=O)[C@@H]3CCCN(N3)C2=O)C(C)C)C1` [Compound A84], which IC50 is on record?
**A.** Its IC50 is 0.1 to 1 µM.

**Q.** For `C=CC(=O)N1CC[C@H](C(=O)N(C)[C@H](C(=O)N[C@H]2Cc3cc(O)cc(c3)-c3ccc4c(c3)c(c(-c3ccccc3[C@@H](C)OC)n4CC)CC(C)(C)COC(=O)[C@@H]3CCCN(N3)C2=O)C(C)C)C1` [Compound A29], which IC50 is on record?
**A.** Its IC50 is 0.1 to 1 µM.

**Q.** Which IC50 does the source give for `C=CC(=O)N1CC2(CCN2C(=O)N(C)[C@H](C(=O)N[C@H]2Cc3nc(n(C)n3)-c3ccc4c(c3)c(c(-c3cccnc3[C@H](C)OC)n4CC)CC(C)(C)COC(=O)[C@@H]3CCCN(N3)C2=O)C(C)C)C1` (atropisomer, axis not shown) [Compound A612] here?
**A.** Its IC50 is 0.1 to 1 µM.

**Q.** Which IC50 does the source give for `C=CC(=O)N1CC[C@H](C(=O)N(C)[C@H](C(=O)N[C@H]2Cc3cc(O)cc(c3)-c3ccc4c(c3)c(c(-c3cncc(CN(C)C)c3)n4CC)CC(C)(C)COC(=O)[C@@H]3CCCN(N3)C2=O)C(C)C)C1` [Compound A73] here?
**A.** Its IC50 is 0.01 to 0.1 µM.
